Source: paper PMC8286840, “Identifying SARS-CoV-2 antiviral compounds by screening for small molecule inhibitors of Nsp3 papain-like protease” (Biochemical Journal, 2021)
Structures can show the parent of a compound that is named as a salt. Where two headings read alike, the source gives them in different places.

How the values were obtained:
[1] = molecular target: T1, SARS-CoV-2 PLpro (nsp3 1564–1878) (Severe acute respiratory syndrome coronavirus 2, UniProt P0DTD1); test: biochemical; design: FRET-quenched peptide (Pro3) cleavage by PLpro, 10 min pre-incubation, slope over 20 min, normalised to no-compound control; settings: low concentration screen, read-out: % of control remaining
[2] = molecular target: T1, SARS-CoV-2 PLpro (nsp3 1564–1878); test: biochemical; design: FRET-quenched peptide (Pro3) cleavage by PLpro, 10 min pre-incubation, slope over 20 min, normalised to no-compound control; settings: high concentration screen, read-out: % of control remaining

O=C(O)CCC(CP(=O)(O)O)C(=O)O (centres unmarked) [PMPA tetrasodium]
remaining activity at 1.25 µM ([1]; Well no.=1219): 105% | remaining activity at 3.75 µM ([2]; Well no.=1219): 103%

Nc1cc(Nc2ccc(S(N)(=O)=O)cc2)ncn1 [PNU112455A]
remaining activity at 1.25 µM ([1]; Well no.=5446): 100% | remaining activity at 3.75 µM ([2]; Well no.=5446): 102%

COc1cc(OC)c(NC(=O)Nc2cc(C)on2)cc1Cl [PNU-120596]
remaining activity at 1.25 µM ([1]; Well no.=4964): 98.4% | remaining activity at 3.75 µM ([2]; Well no.=4964): 92.3%

CC(C)(C)n1nc(-c2ccc(Cl)cc2)c2c(N)ncnc21 [PP 2 - 3-(4-chlorophenyl) 1-(1,1-dimethylethyl)-1H-pyrazolo[3,4-d]pyrimidin-4-amine]
remaining activity at 1.25 µM ([1]; Well no.=2428): 98.1% | remaining activity at 3.75 µM ([2]; Well no.=2428): 101%

Nc1ncnc2c1c(-c1cnc3[nH]ccc3c1)nn2C1CCCC1 [PP-121]
remaining activity at 1.25 µM ([1]; Well no.=4958): 91% | remaining activity at 3.75 µM ([2]; Well no.=4958): 92.2%

Cc1nc(N=Nc2ccc(S(=O)(=O)O)cc2S(=O)(=O)O)c(COP(=O)(O)O)c(C=O)c1O [PPADS]
remaining activity at 1.25 µM ([1]; Well no.=1217): 102% | remaining activity at 3.75 µM ([2]; Well no.=1217): 101%

Cc1nc(N=Nc2cc(S(=O)(=O)O)c3cc([N+](=O)[O-])cc(S(=O)(=O)O)c3c2)c(COP(=O)(O)O)c(C=O)c1O [PPNDS tetrasodium]
remaining activity at 1.25 µM ([1]; Well no.=1048): 102% | remaining activity at 3.75 µM ([2]; Well no.=1048): 103%

O=C(OCCN1CCOCC1)C1(c2ccccc2)CCCCC1 [PRE-084]
remaining activity at 1.25 µM ([1]; Well no.=1000): 98.1% | remaining activity at 3.75 µM ([2]; Well no.=1000): 100%

COCC1(CO)C(=O)C2CCN1CC2 (centres unmarked) [PRIMA-1Met]
remaining activity at 1.25 µM ([1]; Well no.=6212): 101% | remaining activity at 3.75 µM ([2]; Well no.=6212): 99.5%

O=C1C2CCN(CC2)C1(CO)CO [PRIMA-1]
remaining activity at 1.25 µM ([1]; Well no.=6486): 96.7% | remaining activity at 3.75 µM ([2]; Well no.=6486): 97.6%

N#Cc1cc(CN2CCC(Nc3ncnc4sc(Cl)cc34)CC2)ccc1F [PRX-08066]
remaining activity at 1.25 µM ([1]; Well no.=4792): 101% | remaining activity at 3.75 µM ([2]; Well no.=4792): 97.9%

O=P(O)(O)CP(=O)(O)OC[C@H]1O[C@@H](n2cnc3c(NCc4ccccc4)ncnc32)[C@H](O)[C@@H]1O [PSB-12379]
remaining activity at 1.25 µM ([1]; Well no.=8745): 105% | remaining activity at 3.75 µM ([2]; Well no.=8745): 105%

C[C@@]1(F)[C@H](O)[C@@H](CO)O[C@H]1n1ccc(N)nc1=O [PSI-6130]
remaining activity at 1.25 µM ([1]; Well no.=7764): 107% | remaining activity at 3.75 µM ([2]; Well no.=7764): 100%

C[C@@]1(F)[C@H](O)[C@@H](CO)O[C@H]1n1ccc(=O)[nH]c1=O [PSI-6206]
remaining activity at 1.25 µM ([1]; Well no.=7710): 92.6% | remaining activity at 3.75 µM ([2]; Well no.=7710): 87.5%

CCCCC1CCC(c2nc(-c3ccncc3)no2)CC1 (centres unmarked) [PSN-375963]
remaining activity at 1.25 µM ([1]; Well no.=5398): 106% | remaining activity at 3.75 µM ([2]; Well no.=5398): 106%

O=C(Nc1ccc(Cl)cc1)Nc1cccc(-c2cccc(N3CCCC3)n2)c1 [PSNCBAM-1]
remaining activity at 1.25 µM ([1]; Well no.=5820): 105% | remaining activity at 3.75 µM ([2]; Well no.=5820): 97%

Cc1nc2cc(F)c(F)cc2n1-c1cncc(Nc2ccc(C(F)(F)F)cc2)n1 [PTC-028]
remaining activity at 1.25 µM ([1]; Well no.=7024): 106% | remaining activity at 3.75 µM ([2]; Well no.=7024): 96.8%

COc1cc(Br)c(Nc2nc(-c3c(C)nc4ncccn34)cs2)c(Br)c1 [PTC-209]
remaining activity at 1.25 µM ([1]; Well no.=5643): 94.3% | remaining activity at 3.75 µM ([2]; Well no.=5643): 95%

CC(C)NCCCn1c(Sc2cc3c(cc2I)OCO3)nc2c(N)ncnc21 [PU-H71]
remaining activity at 1.25 µM ([1]; Well no.=8772): 98.2% | remaining activity at 3.75 µM ([2]; Well no.=8772): 95.7%

COc1ccc(C(C)=O)c(O)c1 [Paeonol]
remaining activity at 1.25 µM ([1]; Well no.=4045): 100% | remaining activity at 1.25 µM ([1]; Well no.=8194): 105% | remaining activity at 3.75 µM ([2]; Well no.=4045): 101% | remaining activity at 3.75 µM ([2]; Well no.=8194): 102%

CC(=O)c1c(C)c2cnc(Nc3ccc(N4CCNCC4)cn3)nc2n(C2CCCC2)c1=O [Palbociclib (hydrochloride)]
remaining activity at 1.25 µM ([1]; Well no.=7350): 96.3% | remaining activity at 3.75 µM ([2]; Well no.=7350): 97.5%

CC(=O)c1c(C)c2cnc(Nc3ccc(N4CCNCC4)cn3)nc2n(C2CCCC2)c1=O [Palbociclib (isethionate)]
remaining activity at 1.25 µM ([1]; Well no.=7316): 103% | remaining activity at 3.75 µM ([2]; Well no.=7316): 103%

Cc1nc2n(c(=O)c1CCN1CCC(c3noc4cc(F)ccc34)CC1)CCCC2O (centres unmarked) [Paliperidone]
remaining activity at 1.25 µM ([1]; Well no.=8197): 109% | remaining activity at 3.75 µM ([2]; Well no.=8197): 99.6%

COc1cc2c(cc1OC)-c1cc3ccc(OC)c(OC)c3c[n+]1CC2 [Palmatine chloride]
remaining activity at 1.25 µM ([1]; Well no.=3641): 101% | remaining activity at 3.75 µM ([2]; Well no.=3641): 99.2%

CCCCCCCCCCCCCCCC(=O)O [Palmitic acid]
remaining activity at 1.25 µM ([1]; Well no.=7077): 98.9% | remaining activity at 3.75 µM ([2]; Well no.=7077): 94.2%

CCCCCCCCCCCCCCCC(=O)NCCc1ccc(O)c(O)c1 [Palmitoyl dopamine]
remaining activity at 1.25 µM ([1]; Well no.=4261): 101% | remaining activity at 3.75 µM ([2]; Well no.=4261): 98.2%

COc1ccc(COc2cc3oc(=O)c4cc(C(C)O)ccc4c3cc2OC)cc1 (centres unmarked) [Palomid 529]
remaining activity at 1.25 µM ([1]; Well no.=4860): 102% | remaining activity at 3.75 µM ([2]; Well no.=4860): 98.2%

O=C1c2cccc3c2[C@H](CCC3)CN1[C@@H]1CN2CCC1CC2 [Palonosetron (Hydrochloride)]
remaining activity at 1.25 µM ([1]; Well no.=6614): 98.5% | remaining activity at 3.75 µM ([2]; Well no.=6614): 98%

O=C1c2cccc3c2[C@H](CCC3)CN1[C@@H]1CN2CCC1CC2 [Palonosetron HCl]
remaining activity at 1.25 µM ([1]; Well no.=4923): 99.3% | remaining activity at 3.75 µM ([2]; Well no.=4923): 98.2%

Cc1cc(NC(=O)NCCN2CCC(O)(Cc3ccccc3)CC2)c2ccccc2n1 [Palosuran]
remaining activity at 1.25 µM ([1]; Well no.=7915): 105% | remaining activity at 3.75 µM ([2]; Well no.=7915): 92.5%

NCCC(O)(P(=O)(O)O)P(=O)(O)O [Pamidronate Disodium]
remaining activity at 1.25 µM ([1]; Well no.=4773): 96.6% | remaining activity at 3.75 µM ([2]; Well no.=4773): 97.3%

CC1(C)CCC[C@](C)([C@H]2CC[C@]3(C)[C@@H]2[C@H](O)C[C@@H]2[C@@]4(C)CC[C@H](O)C(C)(C)[C@@H]4CC[C@]23C)O1 [Panaxadiol]
remaining activity at 1.25 µM ([1]; Well no.=3739): 100% | remaining activity at 3.75 µM ([2]; Well no.=3739): 99.1%

CC1(C)CCC[C@](C)([C@H]2CC[C@]3(C)[C@@H]2[C@H](O)C[C@@H]2[C@@]4(C)CC[C@H](O)C(C)(C)[C@@H]4[C@@H](O)C[C@]23C)O1 [Panaxatriol]
remaining activity at 1.25 µM ([1]; Well no.=3699): 94.8% | remaining activity at 3.75 µM ([2]; Well no.=3699): 101%

CC(=O)O[C@H]1C[C@@H]2CC[C@@H]3[C@H](CC[C@@]4(C)[C@H]3C[C@H]([N+]3(C)CCCCC3)[C@@H]4OC(C)=O)[C@@]2(C)C[C@@H]1[N+]1(C)CCCCC1 [Pancuronium bromide]
remaining activity at 1.25 µM ([1]; Well no.=808): 98.5% | remaining activity at 3.75 µM ([2]; Well no.=808): 97.8%

Cc1[nH]c2ccccc2c1CCNCc1ccc(/C=C/C(=O)NO)cc1 [Panobinostat (LBH589)]
remaining activity at 1.25 µM ([1]; Well no.=4832): 94.6% | remaining activity at 3.75 µM ([2]; Well no.=4832): 96.4%

COc1ccnc(C[S+]([O-])c2nc3cc(OC(F)F)ccc3[nH]2)c1OC (centres unmarked) [Pantoprazole]
remaining activity at 1.25 µM ([1]; Well no.=2091): 101% | remaining activity at 3.75 µM ([2]; Well no.=2091): 99.9%
